Where a SMILES comes first, the peptide text is derived from it.
Legend:
[1] = Dansyl polymyxin B displacement assay (binding affinity for LPS); parameters: species or system Escherichia coli; settings: for Imax: maximal displacement, 100% = that observed with polymyxin B; for IC50: peptide concentration reducing bound dansyl polymyxin B (10 μM) by 50% of maximal displacement, read-out: I50
Protocol: To determine whether invention peptides are able to interact with the LPS of Gram-negative bacterial outer membrane, the binding affinity of peptide for LPS was determined using a dansyl polymyxin B displacement assay (Moore et al. (1986) Antimicrobial Agents Chemother. 29:496-500). The assay uses dansyl polymyxin, a cationic probe that is highly fluorescent only when bound and LPS isolated from E. coli. UB1005. […] Maximal displacement of LPS was expressed as a percentage where 100% displacement of dansyl polymyxin B was taken as that observed with polymyxin B.

[2] = system: P. aeruginosa M2; assay: P. aeruginosa infection in neutropenic mouse model; assay type: in vivo; settings: neutropenic CD-1 mice; for Mean Time to Death: 200 μg peptide intraperitoneally 30 min after infection; for Survival (%), P. aeruginosa infection: 200 μg peptide intraperitoneally, groups of 5 mice, assessed 24 to 72 hours
Protocol: Invention peptides were assayed for their ability to protect against P. aeruginosa infection in a neutropenic mouse mode. Female CD-1 mice, made neutropenic by three injections of cyclophosphamide (see Gough et al., (1996) Infect. Immun. 64:4922-4927) were injected intraperitoneally with a 100% lethal dose of P. aeruginosa M2 (approximately 200 organisms). Thirty minutes later, mice were injected intraperitoneally with invention peptides (200 μg/100 μl) Survival was assessed 24 to 72 hours later.

[3] = system: E. coli 0111:B4 LPS induced production of TNF-α in RAW macrophages; assay: Reduction of LPS-induced TNF-α in RAW 264.7 macrophages (ELISA); assay type: cell-based, murine; settings: for Inhibition of TNF-α (%): peptide 20 μg/ml, LPS 100 ng/ml, RAW 264.7, 6 hours
Protocol: (§1) The ability of invention peptides to reduce LPS-induced tumor necrosis factor (TNF) production was tested in an in vitro assay. The murine macrophage cell line RAW 264.7 was obtained from American Type Culture Collection (Manassas, Va.) and grown in DMEM medium supplemented with 10% fetal calf serum. The cells were plated at a density of 10^6 cells/well in 24 well plates, incubated overnight, then washed with fresh medium. E. coli 0111 :B4 (100 ng/ml) was added at time 0 to RAW macrophages. Invention peptides […]/m were added at time 0, 30 and 60 minutes and the cells were stimulated for 6 hours. Levels of TNF and interleukin-6 (IL-6) were measured after 6 hours.

[4] = LPS-induced endotoxemia in galactosamine-sensitized mice; assay type: in vivo; settings: 200 μg peptide intraperitoneally, groups of 10 mice, up to 24 h
Protocol: Bacterial endotoxin (LPS) is highly toxic and can cause high mortality in both humans and animals when released during Gram-negative bacterial infection. Galactosamine-treated mice exposed to moderate does of endotoxin typically die from endotoxic shock within 17 hours following exposure. Invention peptides can be tested for their ability to protect mice against endotoxin-induced death (see Examples section). The anti-endotoxic activity of invention peptides also can be tested in an in vitro assay using a macrophage cell line (Gough et al. (1996) Infect. Immun. 64:4922-4927; and Examples section).
The ability of invention peptides to protect against LPS-induced endotoxemia was assessed in vivo. Mice (8-10 weeks old) were injected intraperitoneally with […] D-galactosamine (Dgal) to sensitize them to LPS according to the method of Galanos (Galanos et al. (1979) Proc. Natl. Acad. Sci., USA, 76:5939-5943). Endotoxic shock was induces by intraperitoneal injections of 3 μg/mL E. coli 111 :B4 LPS in phosphate-buffered saline (PBS). Invention peptides (200 μg/100 μl sterile water) were injected intraperitoneally at a separate site within 10 min of LPS injection, and survival was monitored up to 24 h following injection.

[5] = system: intact cells of E. coli UB1005; assay: NPN uptake assay, outer membrane permeabilization; assay type: cell-based, Escherichia coli; settings: peptide concentration leading to 50% of maximal increase in NPN uptake
Protocol: The outer membrane permeabilization activity of invention peptides was determined by the 1-N-phenylnapthylamine (NPN) uptake assay of Loh et al. ((1984) Antimicor. Agents Chemother. 26:546-551), using intact cells of E. coli UB1005.
(§2) The cytoplasmic membrane depolarization activity of the peptides was determined (Wu and Hancock (1999) J. Biol. Chem. 274:29-35) using the membrane potential sensitive dye 3,3-dipropylthiacarbocyanine diSC35 (28) and E. coli DC2. Bacterial cells in mid-log phase were centrifuged, washed in 5 mM HEPES, pH 7.8, and resuspended in the same buffer to an OD600 of 0.05. A stock solution of diSC35 was added to a final concentration of 0.4 μM and quenching was allowed to occur at room temperature for 20-30 min. Then KCl was added to the cell suspension to a final concentration of 100 mM to equilibrate the cytoplasmic and external K^+ concentrations. A 2-mL cell suspension was placed in a 1 cm cuvette and the desired concentration of tested peptide was added. Changes in fluorescence due to the disruption of the membrane potential in the cytoplasmic membrane were continuously recorded using a Perkin-Elmer model 650-10S spectrofluorimeter at an excitation wavelength of 622 nm and an emission wavelength of 670 nm. The concentration of peptide leading to a 50% of maximal increase in NPN uptake was recorded as the P50.
Therefore, an increase in fluorescence in the presence of a peptide indicates the ability of peptide to permeabilize the bacterial outer membrane.

[6] = system: Human Red Blood Cells; assay: Hemolytic assay; assay type: cell-based; settings: red blood cells
Protocol: The toxicity of invention peptides can be assessed using a hemolytic assay in which the ability of the peptides to lyse human red blood cells is assessed (Zhang et al. (1999) Biochemistry 38:8102-8111; and Examples section).
Hemolytic activity of invention peptides was tested against human red blood cells. Freshly collected human blood treated with heparin was centrifuged to remove the buffy coat, and the erythrocytes thereby obtained were washed three times in saline (0.85% NaCl). Serial dilutions of the peptides in saline were prepared in round-bottomed microtiter plates using total volumes of 100 μl. Red blood cells were diluted with saline to 1/25 of a packed cell volume, and 50 μl of cells were added to each well. Plates, while rocking, were incubated at 37° C., and the concentration of the peptide required for lysis after 4 h was taken as the minimal hemolytic concentration.

[7] = system: E. coli 0111:B4 LPS induced production of IL-6 in RAW macrophages; assay: Reduction of LPS-induced IL-6 in RAW 264.7 macrophages (ELISA); assay type: cell-based, murine; settings: for Inhibition of IL-6 (%): peptide 20 μg/ml, LPS 100 ng/ml, RAW 264.7, 6 hours
Protocol: as §1

[8] = system: E. coli DC2; assay: Cytoplasmic membrane depolarization, diSC35 assay; assay type: cell-based, Escherichia coli; settings: 0.25 μg/ml (1×MIC)
Protocol: The arrowhead indicates the time at which 0.25 μg/ml peptide was added. PV5: SEQ ID NO:11; PV7: SEQ ID NO:4; and PV8: SEQ ID NO:3.
as §2

## Polymyxin B [reference compound]
[1]
  Imax: 100%
  IC50: 5.6 µM

## CC(C)[C@@H]1NC(=O)[C@H](CCCNC(=N)N)NC(=O)[C@H](Cc2ccccc2)NC(=O)[C@@H](NC(=O)[C@H](Cc2c[nH]c3ccccc23)NC(=O)[C@H](CCCNC(=N)N)NC(=O)[C@@H](N)Cc2ccccc2)CSSC[C@@H](C(=O)N[C@@H](CCCNC(=N)N)C(N)=O)NC(=O)[C@H](CCCCN)NC(=O)[C@H](Cc2ccc(O)cc2)NC(=O)[C@H](CCCNC(=N)N)NC(=O)[C@@H]2CSSC[C@H](NC1=O)C(=O)N[C@@H](Cc1ccc(O)cc1)C(=O)N[C@@H](CCCCN)C(=O)NCC(=O)N[C@@H](CCCNC(=N)N)C(=O)N2 [SEQ ID NO:3, FRWCFRVCYKGRCRYKCR] (HELM PEPTIDE1{F.R.W.C.F.R.V.C.Y.K.G.R.C.R.Y.K.C.R.[am]}$PEPTIDE1,PEPTIDE1,4:R3-17:R3|PEPTIDE1,PEPTIDE1,8:R3-13:R3$$$V2.0)
[2]
  Mean Time to Death: >72 h
  Survival (%), P. aeruginosa infection: 60%
[1]
  Imax: 93%
  IC50: 4.9 µM
[3]
  Inhibition of TNF-α (%): 55 ± 5%
[4]
  Survival (%), LPS-Endotoxemia: 20%
[5]
  P50: 3.9 µg/mL
[6]
  hemolytic activity: show hemolytic activity
[7]
  Inhibition of IL-6 (%): 70 ± 6%

## CC(C)[C@@H]1NC(=O)[C@H](CCCNC(=N)N)NC(=O)[C@H](Cc2ccccc2)NC(=O)[C@@H](NC(=O)[C@H](Cc2c[nH]c3ccccc23)NC(=O)[C@H](CCCNC(=N)N)NC(=O)[C@@H](N)CCCNC(=N)N)CSSC[C@@H](C(=O)N[C@@H](CCCNC(=N)N)C(N)=O)NC(=O)[C@H](CCCCN)NC(=O)[C@H](CCCNC(=N)N)NC(=O)[C@H](Cc2ccc(O)cc2)NC(=O)[C@@H]2CSSC[C@H](NC1=O)C(=O)N[C@@H](Cc1ccc(O)cc1)C(=O)N[C@@H](CCCNC(=N)N)C(=O)NCC(=O)N[C@@H](CCCNC(=N)N)C(=O)N[C@@H](Cc1ccccc1)C(=O)N2 [SEQ ID NO:11, RRWCFRVCYRGRFCYRKCR] (HELM PEPTIDE1{R.R.W.C.F.R.V.C.Y.R.G.R.F.C.Y.R.K.C.R.[am]}$PEPTIDE1,PEPTIDE1,4:R3-18:R3|PEPTIDE1,PEPTIDE1,8:R3-14:R3$$$V2.0)
[2]
  Mean Time to Death: 57 h
  Survival (%), P. aeruginosa infection: 40%
[1]
  Imax: 87%
  IC50: 3 µM
[3]; 20 μg/ml
  inhibition of TNF-α production: best inhibitor
[3]
  Inhibition of TNF-α (%): 90 ± 6%
[4]
  Survival (%), LPS-Endotoxemia: 50%
[8]
  diSC35 dye release from cells: unable to cause a significant level of dye release
[5]
  P50: 3.7 µg/mL
[6]
  hemolytic activity: show hemolytic activity
[7]; 20 μg/ml
  inhibition of IL-6 production: best inhibitor
[7]
  Inhibition of IL-6 (%): 91 ± 4%

## CC(C)[C@@H]1NC(=O)[C@H](CCCNC(=N)N)NC(=O)[C@H](Cc2ccccc2)NC(=O)[C@@H](NC(=O)[C@H](Cc2c[nH]c3ccccc23)NC(=O)[C@H](CCCNC(=N)N)NC(=O)[C@@H](N)CCCNC(=N)N)CSSC[C@@H](C(=O)N[C@@H](CCCNC(=N)N)C(N)=O)NC(=O)[C@H](CCCCN)NC(=O)[C@H](Cc2ccc(O)cc2)NC(=O)[C@H](CCCNC(=N)N)NC(=O)[C@@H]2CSSC[C@H](NC1=O)C(=O)N[C@@H](Cc1ccc(O)cc1)C(=O)N[C@@H](CCCCN)C(=O)NCC(=O)N[C@@H](Cc1ccccc1)C(=O)N2 [SEQ ID NO:4, RRWCFRVCYKGFCRYKCR] (HELM PEPTIDE1{R.R.W.C.F.R.V.C.Y.K.G.F.C.R.Y.K.C.R.[am]}$PEPTIDE1,PEPTIDE1,4:R3-17:R3|PEPTIDE1,PEPTIDE1,8:R3-13:R3$$$V2.0)
[2]
  Mean Time to Death: 61 h
  Survival (%), P. aeruginosa infection: 40%
[1]
  Imax: 76%
  IC50: 5.7 µM
[3]
  Inhibition of TNF-α (%): 61 ± 5%
[4]
  Survival (%), LPS-Endotoxemia: 40%
[5]
  P50: 4.1 µg/mL
[6]
  hemolytic activity: show hemolytic activity
[7]
  Inhibition of IL-6 (%): 77 ± 6%
